Results as given in BindingDB's records for doi:10.3109/14756360902888200 (Chung Shan Medical University Hospital, 2010).

What follows are compounds tested against Carboxylic ester hydrolase (Equus caballus, UniProt Q9N1N9) (assay: BChE Inhibition Assay). Conditions: pH 7; 25 °C.
Experimental: BChE inhibitions by the carbamate inhibitors were assayed by the Ellman method [Ellman et al., Biochem. Pharm., 7:88-95]. BChE-catalyzed hydrolysis of BTCh in the presence of the carbamate inhibitors and DTNB was followed continuously at 410 nm on a UV-visible spectrometer. The temperature was maintained at 25.0°C by a refrigerated circulating water bath. All inhibition reactions were performed in sodium phosphate buffer (1 mL, 0.1 M, pH 7.0) containing NaCl (0.1 M), acetonitrile (2% by volume), triton X-100 (0.5% by weight), substrate (ATCh for AChE or BTCh for BChE) (50 μM), DTNB, and varying concentrations of inhibitor. Requisite volumes of stock solution of substrateand inhibitors in acetonitrile were injected into the reaction buffer via a pipet. BChE was dissolved in sodium phosphate buffer (0.1 M, pH 7.0).

Chain of Carboxylic ester hydrolase (Q9N1N9 whole entry): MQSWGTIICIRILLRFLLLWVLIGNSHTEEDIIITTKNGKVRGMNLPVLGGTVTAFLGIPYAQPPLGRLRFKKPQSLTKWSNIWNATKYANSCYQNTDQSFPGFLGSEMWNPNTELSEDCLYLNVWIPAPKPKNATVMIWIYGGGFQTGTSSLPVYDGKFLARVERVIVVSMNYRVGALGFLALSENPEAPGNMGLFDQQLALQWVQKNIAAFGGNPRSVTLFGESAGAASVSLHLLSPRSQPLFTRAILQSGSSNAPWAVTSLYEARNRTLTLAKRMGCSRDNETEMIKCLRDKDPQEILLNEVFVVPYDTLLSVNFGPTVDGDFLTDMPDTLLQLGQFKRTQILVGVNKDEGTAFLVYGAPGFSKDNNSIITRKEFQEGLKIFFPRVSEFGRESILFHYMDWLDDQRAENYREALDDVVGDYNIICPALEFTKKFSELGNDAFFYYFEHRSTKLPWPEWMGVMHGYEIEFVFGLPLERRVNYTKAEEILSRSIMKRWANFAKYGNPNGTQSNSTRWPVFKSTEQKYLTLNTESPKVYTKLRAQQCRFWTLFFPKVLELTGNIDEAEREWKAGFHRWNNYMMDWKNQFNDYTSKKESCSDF

Q: `CCCCNC(=O)OC1CC2CCC1C2` [(S)-(-)-exo-2-norbonyl-N-n-butylcarbamate] was tested. Which Ki did it give?
A: 50 nM

Q: With `CCCCNC(=O)OC1CC2CCC1C2` [(R)-(+)-exo-2-norbonyl-N-n-butylcarbamate] as the compound, how does the Ki read?
A: 11 nM

Q: `CCCCNC(=O)OC1CC2CCC1C2` [(S)-(-)-endo-2-norbornyl-N-n-butylcarbamate] was tested. Which Ki did it give?
A: 2 nM
